Reference: patent US11046716B2, “Beta-lactamase inhibitors” (priority 2015, dated 2021)

How the values were obtained:
KPC-2 = molecular target: T1, KPC-2 (Klebsiella pneumoniae, UniProt Q9F663); experiment: β-lactamase enzyme inhibition assay, KPC-2 (imipenem substrate); format: biochemical; conditions: Class A; imipenem substrate, 300 nm; read-out: KPC-2
T1 construct: made in house; host or cells: E. coli BL21(DE3)
Summary of the method: (§1)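 Native untagged enzymes expressed in E. coli BL21(DE3), purified by cation exchange and gel filtration. Inhibitor preincubated with enzyme 15 min at 37 °C; hydrolysis followed by absorbance: imipenem at 300 nm for KPC-2, cefotaxime at 260 nm for SHV-5. IC50 as concentration halving initial hydrolysis rate versus inhibitor-free wells.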

[1] = tested on: K. pneumoniae producing the Class D carbapenemase OXA-48; experiment: Broth microdilution MIC assay with meropenem, K. pneumoniae OXA-48; format: cell-based; conditions: Fixed Mero (meropenem) 4 μg/mL; K. p. 11978 OXA-48
Summary of the method: (§2)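 Visual MIC readout of the test compound after 16-20 hours at 37° C, measured in the presence of a constant 4 μg/ml β-lactam. Compound concentrations spanned 16 to 0.125 μg/mL in 2-fold steps in cation-adjusted Mueller Hinton broth.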

[2] = tested on: P. aeruginosa expressing the Class B carbapenemase VIM-2; experiment: Broth microdilution MIC assay with meropenem, P. aeruginosa VIM-2; format: cell-based; conditions: Fixed Mero (meropenem) 4 μg/mL; P. aerug. 2775 VIM-2
Summary of the method: as §2

SHV-5 = molecular target: T2, SHV-5 (Klebsiella pneumoniae, UniProt P0A3M1); experiment: β-lactamase enzyme inhibition assay, SHV-5 (cefotaxime substrate); format: biochemical
T2 construct: made in house; host or cells: E. coli BL21(DE3)
T2 sequence (P0A3M1 22-286): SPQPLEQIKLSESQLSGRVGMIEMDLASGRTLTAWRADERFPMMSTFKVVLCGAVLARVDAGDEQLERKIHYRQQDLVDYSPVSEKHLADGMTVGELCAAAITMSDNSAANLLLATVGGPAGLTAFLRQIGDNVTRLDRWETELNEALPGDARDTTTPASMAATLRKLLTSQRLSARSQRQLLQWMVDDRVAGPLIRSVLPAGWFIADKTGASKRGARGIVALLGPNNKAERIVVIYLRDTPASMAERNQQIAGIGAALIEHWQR
Summary of the method: as §1

[3] = tested on: E. coli expressing the Class A Extended Spectrum Beta-Lactamase (ESBL) CTX-M-15; experiment: Broth microdilution MIC assay with ceftazidime, E. coli CTX-M-15; format: cell-based; conditions: Fixed CAZ (ceftazidime) 4 μg/mL; E. coli ESBL4 CTX-M-15
Summary of the method: as §2

AmpC = molecular target: T3, AmpC (Enterobacter cloacae, UniProt P05364); experiment: β-lactamase enzyme inhibition assay, p99 AmpC (nitrocefin substrate); format: biochemical
T3 construct: made in house; host or cells: E. coli BL21(DE3)
T3 sequence (P05364 21-381): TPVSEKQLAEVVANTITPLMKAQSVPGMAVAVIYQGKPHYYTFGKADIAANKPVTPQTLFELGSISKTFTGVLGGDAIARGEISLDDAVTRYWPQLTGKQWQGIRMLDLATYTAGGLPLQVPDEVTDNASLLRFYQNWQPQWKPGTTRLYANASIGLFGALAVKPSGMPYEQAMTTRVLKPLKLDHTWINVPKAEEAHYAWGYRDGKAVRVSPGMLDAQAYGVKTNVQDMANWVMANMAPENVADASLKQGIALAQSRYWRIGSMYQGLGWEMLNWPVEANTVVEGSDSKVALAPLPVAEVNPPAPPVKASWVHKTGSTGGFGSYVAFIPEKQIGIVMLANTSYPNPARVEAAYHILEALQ
Summary of the method: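 Native untagged enzymes expressed in E. coli BL21(DE3), purified by cation exchange and gel filtration. Inhibitor preincubated with enzyme 15 min at 37 °C; hydrolysis followed by absorbance. IC50 as concentration halving initial hydrolysis rate versus inhibitor-free wells.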

VIM-2 = molecular target: T4, VIM-2 (Escherichia coli, UniProt Q5U7L7); experiment: β-lactamase enzyme inhibition assay, VIM-2 (nitrocefin substrate); format: biochemical; conditions: Class B; nitrocefin substrate, 486 nm; read-out: VIM-2
T4 construct: made in house; host or cells: E. coli BL21(DE3)
Summary of the method: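 Nitrocefin hydrolysis, read at 486 nm over 10 min, served as the measure of VIM-2 activity. The enzyme had been incubated with compound for 15 min at 37 °C before 100 μM substrate was added, and IC50 values were fitted from percent inhibition of the initial rate.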

OXA-48 = OXA-48 (UniProt Q6XEC0); experiment: β-lactamase enzyme inhibition assay, Class D oxacillinase; format: biochemical; conditions: read-out: OXA-48
[4] = tested on: K. pneumoniae expressing the class A carbapenemase KPC-2 and the class B carbapenemase VIM-4; experiment: Broth microdilution MIC assay with meropenem, K. pneumoniae KPC-2 and VIM-4; format: cell-based; conditions: Fixed Mero (meropenem) 4 μg/mL; K. p. A-1797 KPC-2 VIM-4
Summary of the method: as §2

[5] = tested on: E. cloacae expressing the Class C P99; experiment: Broth microdilution MIC assay with ceftazidime, E. cloacae P99; format: cell-based; conditions: Fixed CAZ (ceftazidime) 4 μg/mL; E. cl. 144200 p99 AmpC
Summary of the method: as §2

[6] = tested on: K. pneumoniae expressing the Class A carbapenemase KPC-2; experiment: Broth microdilution MIC assay with meropenem, K. pneumoniae KPC-2; format: cell-based; conditions: Fixed Mero (meropenem) 4 μg/mL; K. p. 156319 KPC-3
Summary of the method: as §2

T1 sequence (Q9F663 25-293, looked up): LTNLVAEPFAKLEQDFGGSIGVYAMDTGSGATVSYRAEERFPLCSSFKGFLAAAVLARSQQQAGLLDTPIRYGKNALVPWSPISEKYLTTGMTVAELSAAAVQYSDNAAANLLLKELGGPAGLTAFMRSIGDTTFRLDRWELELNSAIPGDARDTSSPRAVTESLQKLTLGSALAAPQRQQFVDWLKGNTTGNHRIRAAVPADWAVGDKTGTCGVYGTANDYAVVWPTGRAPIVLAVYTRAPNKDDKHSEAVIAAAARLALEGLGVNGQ

| SMILES | IC50 (KPC-2) [nM] | MIC (μg/mL) of Exemplary Compounds in presence of fixed β-lactams: K. p. 11978 OXA-48 [1] | MIC (μg/mL) of Exemplary Compounds in presence of fixed β-lactams: P. aerug. 2775 VIM-2 [2] | IC50 (SHV-5) [nM] | MIC (μg/mL) of Exemplary Compounds in presence of fixed β-lactams: E. coli ESBL4 CTX-M-15 [3] | IC50 (AmpC) [nM] | IC50 (VIM-2) [nM] | IC50 (OXA-48) [nM] | MIC (μg/mL) of Exemplary Compounds in presence of fixed β-lactams: K. p. A-1797 KPC-2 VIM-4 [4] | MIC (μg/mL) of Exemplary Compounds in presence of fixed β-lactams: E. cl. 144200 p99 AmpC [5] | MIC (μg/mL) of Exemplary Compounds in presence of fixed β-lactams: K. p. 156319 KPC-3 [6] |
| --- | --- | --- | --- | --- | --- | --- | --- | --- | --- | --- | --- |
| O=C(Cn1cc(C2CNC2)nn1)N[C@H]1Cc2cccc(C(=O)O)c2OB1O [Example 90, (R)-3-(2-(4-(azetidin-3-yl)-1H-1,2,3-triazol-1-yl)acetamido)-2-hydroxy-3,4-dihydro-2H-benzo[e][1,2]oxaborinine-8-carboxylic acid] | < 100 | B (B represents an MIC between 1 and 16 μg/mL inclusive) | C (C represents an MIC of <1 μg/mL) | 100 to 1000 | C (C represents an MIC of <1 μg/mL) | < 100 | 100 to 1000 | 1000 to 10000 | B (B represents an MIC between 1 and 16 μg/mL inclusive) | C (C represents an MIC of <1 μg/mL) | B (B represents an MIC between 1 and 16 μg/mL inclusive) |
| N=C(N)N1CC(c2cn(CC(=O)N[C@H]3Cc4cccc(C(=O)O)c4OB3O)nn2)C1 [Example 91, (R)-3-(2-(4-(1-carbamimidoylazetidin-3-yl)-1H-1,2,3-triazol-1-yl)acetamido)-2-hydroxy-3,4-dihydro-2H-benzo[e][1,2]oxaborinine-8-carboxylic acid] | < 100 | B (B represents an MIC between 1 and 16 μg/mL inclusive) | B (B represents an MIC between 1 and 16 μg/mL inclusive) | < 100 | C (C represents an MIC of <1 μg/mL) | < 100 | 100 to 1000 | 1000 to 10000 | B (B represents an MIC between 1 and 16 μg/mL inclusive) | C (C represents an MIC of <1 μg/mL) | C (C represents an MIC of <1 μg/mL) |
| NCC(O)Cc1cn(CC(=O)N[C@H]2Cc3cccc(C(=O)O)c3OB2O)nn1 (stereo partly drawn) [Example 92, (3R)-3-(2-(4-(3-amino-2-hydroxypropyl)-1H-1,2,3-triazol-1-yl)acetamido)-2-hydroxy-3,4-dihydro-2H-benzo[e][1,2]oxaborinine-8-carboxylic acid] | < 100 | B (B represents an MIC between 1 and 16 μg/mL inclusive) | C (C represents an MIC of <1 μg/mL) | 100 to 1000 | C (C represents an MIC of <1 μg/mL) | < 100 | < 100 | 1000 to 10000 | B (B represents an MIC between 1 and 16 μg/mL inclusive) | C (C represents an MIC of <1 μg/mL) | C (C represents an MIC of <1 μg/mL) |
| N=C(N)NCC(O)Cc1cn(CC(=O)N[C@H]2Cc3cccc(C(=O)O)c3OB2O)nn1 (stereo partly drawn) [Example 93, (3R)-3-(2-(4-(3-guanidino-2-hydroxypropyl)-1H-1,2,3-triazol-1-yl)acetamido)-2-hydroxy-3,4-dihydro-2H-benzo[e][1,2]oxaborinine-8-carboxylic acid] | < 100 | B (B represents an MIC between 1 and 16 μg/mL inclusive) | C (C represents an MIC of <1 μg/mL) | < 100 | C (C represents an MIC of <1 μg/mL) | < 100 | 100 to 1000 | 1000 to 10000 | B (B represents an MIC between 1 and 16 μg/mL inclusive) | C (C represents an MIC of <1 μg/mL) | B (B represents an MIC between 1 and 16 μg/mL inclusive) |
| NNC(=O)Cn1nnc(CC(=O)N[C@H]2Cc3cccc(C(=O)O)c3OB2O)n1 [Example 96, (R)-3-(2-(2-(2-hydrazinyl-2-oxoethyl)-2H-tetrazol-5-yl)acetamido)-2-hydroxy-3,4-dihydro-2H-benzo[e][1,2]oxaborinine-8-carboxylic acid] | < 100 | B (B represents an MIC between 1 and 16 μg/mL inclusive) | C (C represents an MIC of <1 μg/mL) | < 100 | C (C represents an MIC of <1 μg/mL) | < 100 | 100 to 1000 | < 100 | B (B represents an MIC between 1 and 16 μg/mL inclusive) | C (C represents an MIC of <1 μg/mL) | B (B represents an MIC between 1 and 16 μg/mL inclusive) |
| O=C(Cn1cnnn1)N[C@H]1Cc2cccc(C(=O)O)c2OB1O [Example 97, (R)-3-(2-(1H-tetrazol-1-yl)acetamido)-2-hydroxy-3,4-dihydro-2H-benzo[e][1,2]oxaborinine-8-carboxylic acid] | < 100 | C (C represents an MIC of <1 μg/mL) | B (B represents an MIC between 1 and 16 μg/mL inclusive) | < 100 | C (C represents an MIC of <1 μg/mL) | < 100 | 100 to 1000 | < 100 | B (B represents an MIC between 1 and 16 μg/mL inclusive) | C (C represents an MIC of <1 μg/mL) | C (C represents an MIC of <1 μg/mL) |
| O=C(Cc1nnnn1CC1CCNCC1)N[C@H]1Cc2cccc(C(=O)O)c2OB1O [Example 98, (R)-2-hydroxy-3-(2-(1-(piperidin-4-ylmethyl)-1H-tetrazol-5-yl)acetamido)-3,4-dihydro-2H-benzo[e][1,2]oxaborinine-8-carboxylic acid] | < 100 | B (B represents an MIC between 1 and 16 μg/mL inclusive) | C (C represents an MIC of <1 μg/mL) | < 100 | C (C represents an MIC of <1 μg/mL) | < 100 | < 100 | 100 to 1000 | B (B represents an MIC between 1 and 16 μg/mL inclusive) | C (C represents an MIC of <1 μg/mL) | C (C represents an MIC of <1 μg/mL) |
| O=C(Cc1nnn(CC2CCNCC2)n1)N[C@H]1Cc2cccc(C(=O)O)c2OB1O [Example 99, (R)-2-hydroxy-3-(2-(2-(piperidin-4-ylmethyl)-2H-tetrazol-5-yl)acetamido)-3,4-dihydro-2H-benzo[e][1,2]oxaborinine-8-carboxylic acid] | < 100 | B (B represents an MIC between 1 and 16 μg/mL inclusive) | C (C represents an MIC of <1 μg/mL) | < 100 | C (C represents an MIC of <1 μg/mL) | < 100 | 100 to 1000 | 100 to 1000 | B (B represents an MIC between 1 and 16 μg/mL inclusive) | C (C represents an MIC of <1 μg/mL) | C (C represents an MIC of <1 μg/mL) |
